Data taken from patent EP0584797A2, “Novel cephalosporin compounds and processes for the preparation thereof” (LUCKY LTD., priority 1992, dated 1994).
Converted amounts (≈) assume the structure as drawn.

Legend:
Test in all cases: minimal inhibitory concentration, two-fold agar dilution
Assay type in all cases: cell-based
[1] = tested on: Acinetobacter calcoaceticus ATCC 15437; conditions: ATCC15437, Muller-Hinton agar, 37°C, 20 hours, read-out: MIC values against the standard strains
How it was run: (§1)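 Compounds were serially diluted two-fold into Mueller-Hinton agar, and each plate was spot-inoculated with the test strain at 10⁷ CFU per ml. Plates were incubated at 37°C for 20 hours before MIC values were read.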

[2] = tested on: Bacillus cereus ATCC 11778; conditions: ATCC11778, Muller-Hinton agar, 37°C, 20 hours, read-out: MIC values against the standard strains
How it was run: as §1

[3] = tested on: Bacillus megaterium ATCC 9885; conditions: Priestia megaterium, ATCC9885; Muller-Hinton agar; 37°C; 20 hours; read-out: MIC values against the standard strains
How it was run: as §1

[4] = tested on: Citrobacter freundii ATCC 8090; conditions: ATCC8090, Muller-Hinton agar, 37°C, 20 hours, read-out: MIC values against the standard strains
How it was run: as §1

[5] = tested on: Enterobacter aerogenes ATCC 29751; conditions: Klebsiella aerogenes, ATCC29751; Muller-Hinton agar; 37°C; 20 hours; read-out: MIC values against the standard strains
How it was run: as §1

[6] = tested on: Enterobacter cloacae ATCC 27508; conditions: ATCC27508, Muller-Hinton agar, 37°C, 20 hours, read-out: MIC values against the standard strains
How it was run: as §1

[7] = tested on: Escherichia coli ATCC 10536; conditions: ATCC10536, Muller-Hinton agar, 37°C, 20 hours, read-out: MIC values against the standard strains
How it was run: as §1

[8] = tested on: Escherichia coli ATCC 25922; conditions: ATCC25922, Muller-Hinton agar, 37°C, 20 hours, read-out: MIC values against the standard strains
How it was run: as §1

[9] = tested on: Klebsiella pneumoniae ATCC 10031; conditions: ATCC10031, Muller-Hinton agar, 37°C, 20 hours, read-out: MIC values against the standard strains
How it was run: as §1

[10] = tested on: Micrococcus luteus ATCC 9341; conditions: ATCC9341, Muller-Hinton agar, 37°C, 20 hours, read-out: MIC values against the standard strains
How it was run: as §1

[11] = tested on: Morganella morganii ATCC 8076h; conditions: ATCC8076H, Muller-Hinton agar, 37°C, 20 hours, read-out: MIC values against the standard strains
How it was run: as §1

[12] = tested on: Proteus mirabilis ATCC 25933; conditions: ATCC25933, Muller-Hinton agar, 37°C, 20 hours, read-out: MIC values against the standard strains
How it was run: as §1

[13] = tested on: Proteus vulgaris ATCC 6059; conditions: ATCC6059, Muller-Hinton agar, 37°C, 20 hours, read-out: MIC values against the standard strains
How it was run: as §1

[14] = tested on: Providencia rettgeri ATCC 9250; conditions: ATCC9250, Muller-Hinton agar, 37°C, 20 hours, read-out: MIC values against the standard strains
How it was run: as §1

[15] = tested on: Pseudomonas aeruginosa ATCC 10145; conditions: ATCC10145, Muller-Hinton agar, 37°C, 20 hours, read-out: MIC values against the standard strains
How it was run: as §1

[16] = tested on: Pseudomonas aeruginosa ATCC 25619; conditions: ATCC25619, Muller-Hinton agar, 37°C, 20 hours, read-out: MIC values against the standard strains
How it was run: as §1

[17] = tested on: Pseudomonas aeruginosa ATCC 27853; conditions: ATCC27853, Muller-Hinton agar, 37°C, 20 hours, read-out: MIC values against the standard strains
How it was run: as §1

[18] = tested on: Salmonella typhimurium ATCC 14028; conditions: Salmonella enterica; Muller-Hinton agar; 37°C; 20 hours; read-out: MIC values against the standard strains
How it was run: as §1

[19] = tested on: Serratia marcescens ATCC 27117; conditions: ATCC27117, Muller-Hinton agar, 37°C, 20 hours, read-out: MIC values against the standard strains
How it was run: as §1

[20] = tested on: Shigella flexneri ATCC 11836; conditions: ATCC11836, Muller-Hinton agar, 37°C, 20 hours, read-out: MIC values against the standard strains
How it was run: as §1

[21] = tested on: Shigella sonnei ATCC 11060; conditions: ATCC11060, Muller-Hinton agar, 37°C, 20 hours, read-out: MIC values against the standard strains
How it was run: as §1

[22] = tested on: Staphylococcus aureus ATCC 10537; conditions: ATCC10537, Muller-Hinton agar, 37°C, 20 hours, read-out: MIC values against the standard strains
How it was run: as §1

[23] = tested on: Staphylococcus aureus ATCC 6538p; conditions: ATCC6538P, Muller-Hinton agar, 37°C, 20 hours, read-out: MIC values against the standard strains
How it was run: as §1

[24] = tested on: Staphylococcus epidermidis ATCC 12228; conditions: ATCC12228, Muller-Hinton agar, 37°C, 20 hours, read-out: MIC values against the standard strains
How it was run: as §1

[25] = tested on: Streptococcus faecalis ATCC 29212; conditions: Enterococcus faecalis, ATCC29212; Muller-Hinton agar; 37°C; 20 hours; read-out: MIC values against the standard strains
How it was run: as §1

CCO/N=C(\C(=O)N[C@@H]1C(=O)N2C(C(=O)[O-])=C(CSc3nc(N)cc[n+]3C)CS[C@H]12)c1csc(N)n1 [Example 4, 7-[(Z)-2-(aminothiazol-4-yl)-2-(ethoxyimino)acetamido]-3-(4-amino-1-methylpyrimidinium-2-yl)thiomethyl-3-cephem-4-carboxylate]
MIC [1]: 8 µg/mL (≈ 14.5 µM) | MIC [2]: 32 µg/mL (≈ 58.1 µM) | MIC [3]: 0.13 µg/mL (≈ 0.236 µM) | MIC [4]: 0.063 µg/mL (≈ 0.114 µM) | MIC [5]: 0.25 µg/mL (≈ 0.454 µM) | MIC [6]: ≤ 0.008 µg/mL | MIC [7]: 0.063 µg/mL (≈ 0.114 µM) | MIC [8]: 0.063 µg/mL (≈ 0.114 µM) | MIC [9]: ≤ 0.008 µg/mL | MIC [10]: 0.063 µg/mL (≈ 0.114 µM) | MIC [11]: ≤ 0.008 µg/mL | MIC [12]: 0.5 µg/mL (≈ 0.908 µM) | MIC [13]: 0.5 µg/mL (≈ 0.908 µM) | MIC [14]: ≤ 0.008 µg/mL | MIC [15]: 16 µg/mL (≈ 29.1 µM) | MIC [16]: 1 µg/mL (≈ 1.82 µM) | MIC [17]: 8 µg/mL (≈ 14.5 µM) | MIC [18]: 0.25 µg/mL (≈ 0.454 µM) | MIC [19]: 0.25 µg/mL (≈ 0.454 µM) | MIC [20]: 0.031 µg/mL (≈ 0.0563 µM) | MIC [21]: 0.25 µg/mL (≈ 0.454 µM) | MIC [22]: 0.25 µg/mL (≈ 0.454 µM) | MIC [23]: 0.5 µg/mL (≈ 0.908 µM) | MIC [24]: 0.13 µg/mL (≈ 0.236 µM) | MIC [25]: 64 µg/mL (≈ 116 µM)

CCO/N=C(\C(=O)N[C@@H]1C(=O)N2C(C(=O)[O-])=C(CSc3nc(N)c(N)c(N)[n+]3C)CS[C@H]12)c1nsc(N)n1 [Example 5]
MIC [1]: 2 µg/mL (≈ 3.44 µM) | MIC [2]: 16 µg/mL (≈ 27.5 µM) | MIC [3]: 0.063 µg/mL (≈ 0.108 µM) | MIC [4]: 0.13 µg/mL (≈ 0.223 µM) | MIC [5]: 0.016 µg/mL (≈ 0.0275 µM) | MIC [6]: 0.13 µg/mL (≈ 0.223 µM) | MIC [7]: 0.063 µg/mL (≈ 0.108 µM) | MIC [8]: 0.063 µg/mL (≈ 0.108 µM) | MIC [9]: 0.016 µg/mL (≈ 0.0275 µM) | MIC [10]: 0.031 µg/mL (≈ 0.0533 µM) | MIC [11]: ≤ 0.008 µg/mL | MIC [12]: 0.5 µg/mL (≈ 0.86 µM) | MIC [13]: 0.5 µg/mL (≈ 0.86 µM) | MIC [14]: ≤ 0.008 µg/mL | MIC [15]: 4 µg/mL (≈ 6.88 µM) | MIC [16]: 0.5 µg/mL (≈ 0.86 µM) | MIC [17]: 2 µg/mL (≈ 3.44 µM) | MIC [18]: 0.25 µg/mL (≈ 0.43 µM) | MIC [19]: 0.25 µg/mL (≈ 0.43 µM) | MIC [20]: 0.031 µg/mL (≈ 0.0533 µM) | MIC [21]: 0.25 µg/mL (≈ 0.43 µM) | MIC [22]: 0.25 µg/mL (≈ 0.43 µM) | MIC [23]: 0.5 µg/mL (≈ 0.86 µM) | MIC [24]: 0.25 µg/mL (≈ 0.43 µM) | MIC [25]: 32 µg/mL (≈ 55 µM)

C[n+]1c(SCC2=C(C(=O)[O-])N3C(=O)[C@@H](NC(=O)/C(=N\O)c4csc(N)n4)[C@H]3SC2)nc(N)c(N)c1N [Example 9, 7-[(Z)-2-(2-aminothiazol-4-yl)-2-oxyiminoacetamido]-3-(4,5,6-triamino-1-methylpyrimidinium-2-yl)thiomethyl-3-cephem-4-carboxylate]
MIC [1]: 0.13 µg/mL (≈ 0.235 µM) | MIC [2]: 16 µg/mL (≈ 29 µM) | MIC [3]: 0.063 µg/mL (≈ 0.114 µM) | MIC [4]: 0.016 µg/mL (≈ 0.029 µM) | MIC [5]: 0.016 µg/mL (≈ 0.029 µM) | MIC [6]: ≤ 0.008 µg/mL | MIC [7]: 0.031 µg/mL (≈ 0.0561 µM) | MIC [8]: 0.031 µg/mL (≈ 0.0561 µM) | MIC [9]: 0.031 µg/mL (≈ 0.0561 µM) | MIC [10]: 0.031 µg/mL (≈ 0.0561 µM) | MIC [11]: ≤ 0.008 µg/mL | MIC [12]: 0.031 µg/mL (≈ 0.0561 µM) | MIC [13]: 0.063 µg/mL (≈ 0.114 µM) | MIC [14]: ≤ 0.008 µg/mL | MIC [15]: 128 µg/mL (≈ 232 µM) | MIC [16]: 64 µg/mL (≈ 116 µM) | MIC [17]: 128 µg/mL (≈ 232 µM) | MIC [18]: 0.25 µg/mL (≈ 0.452 µM) | MIC [19]: 0.25 µg/mL (≈ 0.452 µM) | MIC [20]: 0.063 µg/mL (≈ 0.114 µM) | MIC [21]: 0.25 µg/mL (≈ 0.452 µM) | MIC [22]: 0.13 µg/mL (≈ 0.235 µM) | MIC [23]: 0.25 µg/mL (≈ 0.452 µM) | MIC [24]: 0.063 µg/mL (≈ 0.114 µM) | MIC [25]: 2 µg/mL (≈ 3.62 µM)

C[n+]1c(SCC2=C(C(=O)[O-])N3C(=O)[C@@H](NC(=O)/C(=N\OC(C)(C)C(=O)O)c4csc(N)n4)[C@H]3SC2)nc(N)c(N)c1N [Example 1]
MIC [1]: 8 µg/mL (≈ 12.5 µM) | MIC [2]: 128 µg/mL (≈ 200 µM) | MIC [3]: 0.25 µg/mL (≈ 0.391 µM) | MIC [4]: 0.13 µg/mL (≈ 0.204 µM) | MIC [5]: 2 µg/mL (≈ 3.13 µM) | MIC [6]: 0.016 µg/mL (≈ 0.0251 µM) | MIC [7]: 0.13 µg/mL (≈ 0.204 µM) | MIC [8]: 0.063 µg/mL (≈ 0.0986 µM) | MIC [9]: 0.063 µg/mL (≈ 0.0986 µM) | MIC [10]: 0.25 µg/mL (≈ 0.391 µM) | MIC [11]: ≤ 0.008 µg/mL | MIC [12]: 0.063 µg/mL (≈ 0.0986 µM) | MIC [13]: 0.063 µg/mL (≈ 0.0986 µM) | MIC [14]: ≤ 0.008 µg/mL | MIC [15]: 2 µg/mL (≈ 3.13 µM) | MIC [16]: 1 µg/mL (≈ 1.57 µM) | MIC [17]: 1 µg/mL (≈ 1.57 µM) | MIC [18]: 0.25 µg/mL (≈ 0.391 µM) | MIC [19]: 0.25 µg/mL (≈ 0.391 µM) | MIC [20]: 0.031 µg/mL (≈ 0.0485 µM) | MIC [21]: 0.13 µg/mL (≈ 0.204 µM) | MIC [22]: 2 µg/mL (≈ 3.13 µM) | MIC [23]: 8 µg/mL (≈ 12.5 µM) | MIC [24]: 2 µg/mL (≈ 3.13 µM) | MIC [25]: > 128 µg/mL
